Data as given in patent publication US7696246B2 (Ligand Pharmaceuticals Incorporated, priority 1999, dated 2010).
pEC50, pIC50, pKi: −log10 of the molar value. Like-named read-outs stand apart in the source and are kept apart here.

How the values were obtained:
[1] = target: T1, human AR (Homo sapiens, UniProt P10275); assay: Co-transfection assay, AR agonist activity (CV-1 cells, MTV-LUC reporter); type: cell-based; conditions: CV-1 cells; for pEC50: agonist potency EC50; for AR Agonist CV-1 Cells Efficacy (%): percent maximal response relative to reference agonist DHT
T1 sequence (P10275 1-920): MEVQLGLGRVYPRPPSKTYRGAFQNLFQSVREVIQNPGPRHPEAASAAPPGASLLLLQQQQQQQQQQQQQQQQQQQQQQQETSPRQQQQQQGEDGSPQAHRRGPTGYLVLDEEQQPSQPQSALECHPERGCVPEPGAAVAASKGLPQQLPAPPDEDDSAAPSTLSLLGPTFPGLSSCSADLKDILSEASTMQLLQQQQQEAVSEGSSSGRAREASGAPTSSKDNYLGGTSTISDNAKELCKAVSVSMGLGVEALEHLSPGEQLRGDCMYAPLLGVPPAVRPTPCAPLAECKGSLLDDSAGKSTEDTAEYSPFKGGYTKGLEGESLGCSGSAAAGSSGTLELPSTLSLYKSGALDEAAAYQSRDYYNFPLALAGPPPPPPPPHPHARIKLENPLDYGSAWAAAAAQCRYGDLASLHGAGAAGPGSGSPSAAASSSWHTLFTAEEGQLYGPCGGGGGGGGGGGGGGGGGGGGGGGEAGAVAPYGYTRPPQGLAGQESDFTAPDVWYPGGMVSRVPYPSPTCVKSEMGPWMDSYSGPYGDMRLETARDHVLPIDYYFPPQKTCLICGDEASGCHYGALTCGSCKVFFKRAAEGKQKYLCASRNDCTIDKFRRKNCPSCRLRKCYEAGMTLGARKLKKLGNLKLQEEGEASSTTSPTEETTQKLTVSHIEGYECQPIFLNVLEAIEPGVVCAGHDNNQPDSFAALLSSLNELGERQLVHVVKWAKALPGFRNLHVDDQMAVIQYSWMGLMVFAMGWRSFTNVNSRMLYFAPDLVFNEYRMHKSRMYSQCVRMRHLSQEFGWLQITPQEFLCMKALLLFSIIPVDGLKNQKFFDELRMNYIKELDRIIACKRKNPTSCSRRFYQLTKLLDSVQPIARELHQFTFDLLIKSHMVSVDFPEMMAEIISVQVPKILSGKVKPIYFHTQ

[2] = target: T1, human AR; assay: Co-transfection assay, AR antagonist activity (CV-1 cells, in presence of DHT); type: cell-based; conditions: for AR Antagonist CV-1 Cells Efficacy (%): percent maximal inhibition, DHT at its EC50
[3] = target: T1, human AR; assay: AR whole cell competitive binding assay (COS-1 cells, 3H-DHT); conditions: 1 nM 3H-DHT, Cheng-Prusoff
Procedure: AR Binding: For the whole cell binding assay, COS-1 cells in 96-well microtiter plates containing DMEM-10% FBS were transfected as described above with the following plasmid DNA: pRShAR (2 ng/well), pRS-β-Gal (50 ng/well) and pGEM (48 ngcwell). Six hours after transfection, media was removed, the cells were washed with PBS and fresh media was added. The next day, the media was changed to DMEM-serum free to remove any endogenous ligand that might be complexed with the receptor in the cells.
Three replicates were used for each sample. […] The remaining media was removed, the cells were washed three times with PBS to remove unbound ligand, and cells were lysed with a Triton X-100-based buffer.
For the saturation analyses, the difference between the total binding and the nonspecific binding, normalized by the β-Gal rate, was defined as specific binding. […] The Ki values were determined by application of the Cheng-Prusoff equation to the IC50 values, where:
After correcting for non-specific binding, IC50 values were determined. […] The IC50 value was determined graphically from a log-logit plot of the data. The Ki values were determined by application of the Cheng-Prusoff equivuation to the IC50 values, the labeled ligand concentration and the Kd of the labeled ligand.

[4] = read-out: AR Antagonist CV-1 Cells Potency

| Compound | pEC50 [1] | AR Agonist CV-1 Cells Efficacy (%) [1] [%] | AR Antagonist CV-1 Cells Efficacy (%) [2] | pIC50 [2, 4] | pKi [3] | pIC50 [2] |
| --- | --- | --- | --- | --- | --- | --- |
| CC1COC(C(F)(F)F)N1c1ccc2[nH]c(=O)cc(C(F)(F)F)c2c1 (racemic) [Compound 352, (±)-6-(2-Trifluoromethyl-5-trans-methyl-1-oxazolidino)-4-trifluoromethyl-2(1H)-quinolinone] | 7.92 | 113 | na (na = not active (i.e. efficacy of <20 and potency of >10,000)) | < 5.00 | 7.60 |  |
| CCCC1CCC(CCC)N1c1ccc2[nH]c(=O)cc(C(F)(F)F)c2c1 (racemic) [Compound 365, (±)-6-(2,5-trans-Dipropyl-1-pyrrolidino)-4-trifluoromethyl-2(1H)-quinolinone] | 7.26 | 36 | 43% | 7.85 | 6.91 |  |
| CSCC1CCCCN1c1ccc2[nH]c(=O)cc(C(F)(F)F)c2c1 (racemic) [Compound 426, (±)-6-(2-Thiomethoxymethyl-1-piperidino)-4-trifluoromethyl-2(1H)-quinolinone] | 7.35 | 93 | na (na = not active (i.e. efficacy of <20 and potency of >10,000)) | < 5.00 | 7.55 |  |
| C=CC1CCCCN1c1ccc2[nH]c(=O)cc(C(F)(F)F)c2c1 (racemic) [Compound 444, (±)-6-(2-Vinyl-1-piperidino)-4-trifluoromethyl-2(1H)-quinolinone] | 7.14 | 83 | na (na = not active (i.e. efficacy of <20 and potency of >10,000)) | < 5.00 | 7.59 |  |
| O=c1cc(C(F)(F)F)c2cc(N3CCCCC3CCOCc3ccccc3)ccc2[nH]1 (racemic) [Compound 445, (±)-6-(2-Benzyloxyethyl-1-piperidino)-4-trifluoromethyl-2(1H)-quinolinone] | 7.59 | 104 | na (na = not active (i.e. efficacy of <20 and potency of >10,000)) |  | 8.24 | < 5.00 |
| O=c1cc(C(F)(F)F)c2cc(N3CCCCC3CCOCc3ccc(C(F)(F)F)cc3)ccc2[nH]1 (racemic) [Compound 449, (±)-6-(2-(4-Trifluoromethyl)benzyloxyethyl-1-piperidino)-4-trifluoromethyl-2(1H)-quinolinone] | 7.80 | 83 | na (na = not active (i.e. efficacy of <20 and potency of >10,000)) | < 5.00 | 8.08 |  |
| CCCCC1(O)C=C(c2ccc3c(c2)C(C)(C)OC(=O)N3)CCC1 (racemic) [Compound 694, (±)-6-(3-Butyl-3-hydroxy-1-)cyclohexenyl-1,4-dihydro-4,4-dimethyl-1,3-benzo[d]oxazin-2-one] | 6.03 | 25 | 90% | 7.19 | < 6.00 |  |
| CC1OC(=O)Nc2ccc(C3=CCCCC3)cc21 (racemic) [Compound 698, (±)-6-(1-Cyclohexenyl)-1,4-dihydro-4-methyl-1,3-benzo[d]oxazin-2-one] | < 5.00 |  | 84% | 7.77 | 7.49 |  |
| CC(C)CN(CC(C)C)c1ccc2[nH]c(=O)cc(C(F)(F)F)c2c1 [Compound 221, 6-Diisobutylamino-4-trifluoromethyl-2(1H)-quinolinone] | 7.64 | 114 | na (na = not active (i.e. efficacy of <20 and potency of >10,000)) | < 5.00 | 6.83 |  |
| O=c1cc(C(F)(F)F)c2cc(N(CC(F)(F)C(F)(F)F)CC(F)(F)C(F)(F)F)ccc2[nH]1 [Compound 224, 6-(bis-2,2,3,3,3-Pentafluoropropyl)amino-4-trifluoromethyl-2(1H)-quinolinone] | 7.39 | 108 | na (na = not active (i.e. efficacy of <20 and potency of >10,000)) | < 5.00 | 6.69 |  |
| O=c1cc(C(F)(F)F)c2cc(N(CC(F)(F)Cl)CC(F)(F)Cl)ccc2[nH]1 [Compound 225, 6-(bis-2-Chloro-2,2-difluoroethyl)amino-4-trifluoromethyl-2(1H)-quinolinone] | 9.40 | 90 | na (na = not active (i.e. efficacy of <20 and potency of >10,000)) | < 5.00 | 9.05 |  |
| O=c1cc(C(F)(F)F)c2cc(NCC(Cl)(Cl)Cl)ccc2[nH]1 [Compound 227, 6-(N-2,2,2-Trichloroethyl)amino-4-trifluoromethyl-2(1H)-quinolinone] | < 5.00 |  | 73% | 7.85 | 7.42 |  |
| O=c1cc(C(F)(F)F)c2cc(N(CC(Cl)Cl)CC(Cl)Cl)ccc2[nH]1 [Compound 232, 6-(bis-N-2,2-Dichloroethyl)amino-4-trifluoromethyl-2(1H)-quinolinone] | 8.47 | 55 | na (na = not active (i.e. efficacy of <20 and potency of >10,000)) | < 5.00 | 8.12 |  |
| CCCN(CC)c1ccc2[nH]c(=O)cc(C(F)(F)F)c2c1 [Compound 238, 6-(N-Ethyl-N-propyl)amino-4-trifluoromethyl-2(1H)-quinolinone] | 8.28 | 77 | na (na = not active (i.e. efficacy of <20 and potency of >10,000)) | < 5.00 | 7.77 |  |
| CCN(CC(C)C)c1ccc2[nH]c(=O)cc(C(F)(F)F)c2c1 [Compound 241, 6-(N-Ethyl-N-isobutyl)amino-4-trifluoromethyl-2(1H)-quinolinone] | 8.54 | 73 | na (na = not active (i.e. efficacy of <20 and potency of >10,000)) | < 5.00 | 7.52 |  |
| CCCN(CC1CC1)c1ccc2[nH]c(=O)cc(C(F)(F)F)c2c1 [Compound 254, 6-(N-Propyl-N-cyclopropylmethyl)amino-4-trifluoromethyl-2(1H)-quinolinone] | 9.05 | 78 | na (na = not active (i.e. efficacy of <20 and potency of >10,000)) | < 5.00 | 7.92 |  |
| CC(C)CN(CC(F)(F)F)c1ccc2[nH]c(=O)cc(C(F)(F)F)c2c1 [Compound 259, 6-(N-2,2,2-trifluoroethyl-N-isobutyl)amino-4-trifluoromethyl-2(1H)-quinolinone] | 8.72 | 97 | na (na = not active (i.e. efficacy of <20 and potency of >10,000)) | < 5.00 | 8.20 |  |
| O=c1cc(C(F)(F)F)c2cc(N(Cc3ccccc3)Cc3ccccc3)ccc2[nH]1 [Compound 272, 6-(bis-N,N-Benzyl)amino-4-trifluoromethyl-2(1H)-quinolinone] | < 5.00 |  | 67% | 8.15 | < 6.00 |  |
